Experimental data published in patent publication US9253997B2, “Alkylamine derivative” (AJINOMOTO CO., INC., priority 2010, dated 2016).

How the values were obtained:
[1] = test system: serum iPTH; test: Effect of decreasing iPTH in rat by single dose of intravenous administration; assay type: in vivo; conditions: male SD (IGS) rat, 0.1 mg/kg, compared with cinacalcet
Method: (Method) A single dose was given to male SD (IGS) rat under pentobarbital anesthesia from a tail vein to examine the transition of serum iPTH and serum Ca concentration. Blood was taken before the administration and 5, 15, 30 and 60 minutes after the administration.
Compound No. 1 (the compound described in Example 6) was dissolved in physiological saline. Meanwhile, cinacalcet as a control substance was dissolved in PEG400: Saline=1:1 solution.

[2] = test system: NSAID-induced small intestine inflammation; test: Effect against NSAID-induced small intestine inflammation; assay type: in vivo, rat; conditions: 30 minutes before loxoprofen 60 mg/kg oral, 24 hours
Method: (Method) To a non-fasting rat, Compound No. 1 or 2 (the compound described in Example 14) (10 mg/kg) or Compound No. 3 (the compound described in Example 48) (3, 10 or 30 mg/kg) was orally administered. After 30 minutes, loxoprofen (60 mg/kg) was orally administered and the rat was left for 24 hours. Thirty minutes before the autopsy, 1 ml of 1% (w/w) Evansblue dye was intravenously administered to the rat. The small intestine (from duodenum to ileum) of the animal euthanized under deep ether anesthesia was isolated and immersed in 2% formalin for 10 minutes to fix the small intestine from the serosa side. The small intestine was dissected from the opposite side of the mesentery to measure the injury area (mm^2) thereof under a 10× dissecting microscope. T-test or Dunnett's test was employed as the statistical test where p<0.05 was considered to indicate significant difference.

[3] = test system: large intestine loop; test: Water absorption action using rat colon loop technique; assay type: in vivo; conditions: male SD (IGS) rat colon loop, PGE2 4 μg/ml/kg i.p., compound in Tyrode's solution injected into loop, 1 hour; FIGS. 5-8
Method: (Method) Appendix and large intestine were isolated from a male SD (IGS) rat under pentobarbital anesthesia, which were ligated 5 cm below the appendix to prepare a large intestine loop. Immediately after loop preparation, PGE2 (4 μg/ml/kg, SIGMA) was intraperitoneally administered. Thirty minutes later, 2 ml of Tyrode's solution (NaCl 136.9 mM, KCl 2.7 mM, CaCl2.2H2O 1.8 mM, MgCl2.6H2O 1.04 mM, NaH2PO4.2H2O 0.04 mM, NaH2PO4.2H2O 0.04 mM, Glucose 5.55 mM, NaHCO3 11.9 mM) was injected into the prepared loop. An hour later, weight of the loop, weight of the loop after removing the fluid therefrom and the loop area were measured to calculate the weight of liquid remaining in the loop per unit area.
The above-described Compounds Nos. 1-3 and Compound No. 4 (the compound described in Example 47) were used as the test compounds while the agents were dissolved in Tyrode's solution. Remaining liquid measure per unit area (g/cm^2)=(weight of loop−weight of loop after removing fluid therefrom)/loop area.
Water absorption was assessed by calculating water regulating effect (%) according to the following formula. Water regulating effect (%)=100−(remaining liquid measure per unit area obtained with agent−average remaining liquid measure per base unit area)/(remaining liquid measure per unit area obtained with vehicle−average remaining liquid measure per base unit area)×100.

[4] = molecular target: human CaSR (Homo sapiens (Human), UniProt P41180); test: Assessment of CaSR agonistic activity (FLIPR Ca2+ fluorescence); assay type: cell-based; conditions: 293E cells transfected with hCaSR/pcDNA3.1, Calcium 4 Assay Kit, 1.5 mM CaCl2 assay buffer
Sequence of human CaSR (P41180 20-1078): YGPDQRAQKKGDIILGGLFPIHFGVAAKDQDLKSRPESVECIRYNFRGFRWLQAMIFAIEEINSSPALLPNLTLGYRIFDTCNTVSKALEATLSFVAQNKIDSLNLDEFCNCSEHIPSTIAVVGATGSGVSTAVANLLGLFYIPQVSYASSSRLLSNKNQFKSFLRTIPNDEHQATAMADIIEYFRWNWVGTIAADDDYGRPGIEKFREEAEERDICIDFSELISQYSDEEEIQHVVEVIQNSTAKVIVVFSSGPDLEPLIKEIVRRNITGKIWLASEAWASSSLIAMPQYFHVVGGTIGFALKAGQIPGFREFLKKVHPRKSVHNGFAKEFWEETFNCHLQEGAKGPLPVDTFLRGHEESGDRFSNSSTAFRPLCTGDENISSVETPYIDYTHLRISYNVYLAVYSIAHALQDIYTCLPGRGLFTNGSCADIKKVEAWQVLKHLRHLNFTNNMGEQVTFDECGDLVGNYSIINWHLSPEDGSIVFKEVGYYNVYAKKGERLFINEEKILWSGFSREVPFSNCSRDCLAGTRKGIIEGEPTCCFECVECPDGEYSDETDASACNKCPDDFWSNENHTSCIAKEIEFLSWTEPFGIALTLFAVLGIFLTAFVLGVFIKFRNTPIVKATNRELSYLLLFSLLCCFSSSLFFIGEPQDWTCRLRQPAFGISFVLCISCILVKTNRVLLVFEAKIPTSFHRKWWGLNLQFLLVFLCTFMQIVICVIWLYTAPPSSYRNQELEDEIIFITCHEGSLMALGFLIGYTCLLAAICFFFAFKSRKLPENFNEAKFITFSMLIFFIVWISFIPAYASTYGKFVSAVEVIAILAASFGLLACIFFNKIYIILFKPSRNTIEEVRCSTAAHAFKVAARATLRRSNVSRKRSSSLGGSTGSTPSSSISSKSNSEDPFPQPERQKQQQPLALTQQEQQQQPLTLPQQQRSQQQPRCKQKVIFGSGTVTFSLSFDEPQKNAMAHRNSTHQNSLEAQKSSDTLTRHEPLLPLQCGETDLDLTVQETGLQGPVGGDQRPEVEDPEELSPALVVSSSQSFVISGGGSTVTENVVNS
Method: CaSR gene was prepared according to the method described in Example 1 of WO07/55393. The resulting recombinant plasmid was used to generate human CaSR-expressing plasmid hCaSR/pcDNA3.1.
293E cells (EBNA1-expressing IIEK293 cells, ATCC No. CRL-10852) were cultured in DMEM ([…] Glucose-containing Dulbecco's modified Eagle medium, Nacalai Tesque) containing 10% bovine fetal serum in the presence of 250 μg/ml of G418. The cells were seeded on a 10 cm-diameter petri dish at 1.8×10^6 cells/15 ml, and left to stand in a CO2 incubator (5% CO2, 37° C.) for 24 hours. Thereafter, human CaSR expression plasmid hCaSR/pcDNA3.1 was transfected with transfection reagent Mirus Trans IT 293 (Takara Bio). Following static culture in a CO2 incubator for 24 hours, the cells were harvested with 10% bovine fetal serum-containing DMEM and seeded on a poly-D-lysine coat 384 well plate (Falcon) at 15,000 cells/well. Following static culture in a CO2 incubator for 24 hours, the medium was removed and the resultant was added with 50 μl/well of Ca^2+ fluorescent indicator Calcium 4 Assay Kit (Molecular Devices) dissolved in an assay buffer (146 mM NaCl, 5 mM KCl, 1 mM MgSO4, 1 mg/ml Glucose, 20 mM HEPES (PH 7.2), 1.5 mM CaCl2), and left to stand at 37° C. for an hour and then at room temperature for 30 minutes to allow intake of the indicator. The above-mentioned 384-well plate was transferred to FLIPR (Molecular Devices) and added with 12.5 μl/well of a compound dissolved in a 0.1% BSA-containing assay buffer to measure 3-minute change in the fluorescence intensity.
The difference between maximum and minimum fluorescence intensities before and after compound addition (RFU (Max-Min)) was determined by FLIPR automatic calculation. An activity rate was calculated where RFU (Max-Min) upon addition of a compound at a maximum concentration was defined 100% and RFU (Max-Min) upon addition of DMSO as a substitute for the compound at the same concentration was defined 0%. […]

[5] = non-fasting rat, 10 mg/kg oral, FIG. 3

Structure (SMILES) | injury area of small intestine [2, 5] | water absorption (water regulating effect) [3] | EC50 [4] [µM] | also measured
N[C@@H](CNC(=O)Nc1cc(Cl)cc(S(=O)(=O)O)c1O)C(=O)O [Example 6, (2S)-2-amino-3-{[(5-chloro-2-hydroxy-3-sulfophenyl)carbamoyl]amino}propanoic acid] | significantly improved the injury area | promoted water absorption in a dose-depending manner | – | decreasing serum iPTH ([1]; FIG. 1): almost the same effect as cinacalcet; decreasing serum Ca ([1]; FIG. 2): almost the same effect as cinacalcet
Cc1c(Cl)cc(S(=O)(=O)O)cc1NC(=O)NC[C@H](N)C(=O)O [Example 14, (2S)-2-amino-3-{[(3-chloro-2-methyl-5-sulfophenyl)carbamoyl]amino}propanoic acid] | showed a tendency to improve the injury area | promoted water absorption in a dose-depending manner | 0.003 | –
Cc1c(Cl)cc(S(=O)(=O)O)cc1NC(=S)NC[C@H](N)C(=O)O [Example 47, (2S)-2-amino-3-{[(3-chloro-2-methyl-5-sulfophenyl)carbamothioyl]amino}propanoic acid] | – | promoted water absorption in a dose-depending manner | – | –
Cc1c(Cl)cc(NC(=S)NC[C@H](N)C(=O)O)cc1S(=O)(=O)O [Example 48, (2S)-2-amino-3-{[(3-chloro-4-methyl-5-sulfophenyl)carbamothioyl]amino}propanoic acid] | – | promoted water absorption in a dose-depending manner | – | injury area of small intestine ([2]; non-fasting rat, 3, 10 or 30 mg/kg oral, FIG. 4): showed a tendency to improve the injury area
N[C@@H](CCC(=O)Nc1cc(Cl)cc(S(=O)(=O)O)c1O)C(=O)N1CCOCC1 [Example 58, 3-[(4S)-4-amino-5-(morpholine-4-yl)-5-oxopentanamide]-5-chloro-2-hydroxybenzene-1-sulfonic acid] | – | – | 3.1 | –
N[C@@H](CCC(=O)Nc1cc(Cl)cc(S(=O)(=O)O)c1O)C(=O)NC1CCCCCC1 [Example 60, 3-[(4S)4-amino-4-(cycloheptylcarbamoyl)butanamide]-5-chloro-2-hydroxybenzene-1-sulfonic acid] | – | – | 3.4 | –
